Measured values from publication PMC5564600 (Oncotarget, 2017).

Key:
Experiment in all cases: biochemical
Assay type in all cases: binding
panel of 442 kinases [1] = molecular target: T1, panel of 442 kinases (Homo sapiens, UniProt O14976); details: kinase GAK; for remaining activity at 1 µM: read-out: % of control at 1 µM
T1 construct: purchased Ambit Biosciences (scanMAXX KINOMEscan)
T1 sequence (O14976 1-1311): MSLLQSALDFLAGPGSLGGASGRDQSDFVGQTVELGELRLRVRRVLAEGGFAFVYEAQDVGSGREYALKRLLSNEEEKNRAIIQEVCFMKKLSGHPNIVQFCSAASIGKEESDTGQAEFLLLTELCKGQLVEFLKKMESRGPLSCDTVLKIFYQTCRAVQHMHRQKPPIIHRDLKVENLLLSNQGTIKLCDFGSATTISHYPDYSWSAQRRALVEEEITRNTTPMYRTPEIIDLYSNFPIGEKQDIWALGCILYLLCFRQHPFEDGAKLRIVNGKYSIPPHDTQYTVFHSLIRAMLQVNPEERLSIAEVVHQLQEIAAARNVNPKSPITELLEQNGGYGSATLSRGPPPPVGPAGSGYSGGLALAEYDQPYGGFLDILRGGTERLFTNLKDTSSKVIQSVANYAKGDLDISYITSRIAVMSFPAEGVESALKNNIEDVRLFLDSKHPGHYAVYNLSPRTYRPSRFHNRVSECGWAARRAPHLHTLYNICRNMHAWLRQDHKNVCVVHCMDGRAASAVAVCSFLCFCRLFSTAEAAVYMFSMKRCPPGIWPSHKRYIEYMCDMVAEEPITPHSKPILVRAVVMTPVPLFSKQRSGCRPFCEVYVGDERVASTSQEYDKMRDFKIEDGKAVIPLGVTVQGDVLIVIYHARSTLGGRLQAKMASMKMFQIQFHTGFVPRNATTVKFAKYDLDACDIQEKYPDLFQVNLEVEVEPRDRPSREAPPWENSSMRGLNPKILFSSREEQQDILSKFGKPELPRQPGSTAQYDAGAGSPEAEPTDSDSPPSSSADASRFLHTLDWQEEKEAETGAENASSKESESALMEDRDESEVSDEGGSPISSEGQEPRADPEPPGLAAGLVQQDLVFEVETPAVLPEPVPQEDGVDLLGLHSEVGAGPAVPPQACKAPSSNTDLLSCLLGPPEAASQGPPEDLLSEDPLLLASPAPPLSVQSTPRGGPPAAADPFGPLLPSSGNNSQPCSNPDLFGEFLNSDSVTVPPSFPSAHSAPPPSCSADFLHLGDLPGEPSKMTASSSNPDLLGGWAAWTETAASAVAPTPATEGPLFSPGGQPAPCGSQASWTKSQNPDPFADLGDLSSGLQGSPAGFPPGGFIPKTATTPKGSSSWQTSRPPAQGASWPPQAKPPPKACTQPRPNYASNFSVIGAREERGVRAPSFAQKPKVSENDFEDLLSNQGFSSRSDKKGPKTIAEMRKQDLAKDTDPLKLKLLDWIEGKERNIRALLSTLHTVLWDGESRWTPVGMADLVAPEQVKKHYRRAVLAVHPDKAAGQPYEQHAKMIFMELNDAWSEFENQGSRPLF

panel of 442 kinases [2] = molecular target: T2, panel of 442 kinases (Homo sapiens, UniProt Q02763); details: kinase TIE2; for remaining activity at 1 µM: read-out: TIE2 (% of control at 1 µM)
T2 construct: purchased Ambit Biosciences (scanMAXX KINOMEscan)
T2 sequence (Q02763 23-1124): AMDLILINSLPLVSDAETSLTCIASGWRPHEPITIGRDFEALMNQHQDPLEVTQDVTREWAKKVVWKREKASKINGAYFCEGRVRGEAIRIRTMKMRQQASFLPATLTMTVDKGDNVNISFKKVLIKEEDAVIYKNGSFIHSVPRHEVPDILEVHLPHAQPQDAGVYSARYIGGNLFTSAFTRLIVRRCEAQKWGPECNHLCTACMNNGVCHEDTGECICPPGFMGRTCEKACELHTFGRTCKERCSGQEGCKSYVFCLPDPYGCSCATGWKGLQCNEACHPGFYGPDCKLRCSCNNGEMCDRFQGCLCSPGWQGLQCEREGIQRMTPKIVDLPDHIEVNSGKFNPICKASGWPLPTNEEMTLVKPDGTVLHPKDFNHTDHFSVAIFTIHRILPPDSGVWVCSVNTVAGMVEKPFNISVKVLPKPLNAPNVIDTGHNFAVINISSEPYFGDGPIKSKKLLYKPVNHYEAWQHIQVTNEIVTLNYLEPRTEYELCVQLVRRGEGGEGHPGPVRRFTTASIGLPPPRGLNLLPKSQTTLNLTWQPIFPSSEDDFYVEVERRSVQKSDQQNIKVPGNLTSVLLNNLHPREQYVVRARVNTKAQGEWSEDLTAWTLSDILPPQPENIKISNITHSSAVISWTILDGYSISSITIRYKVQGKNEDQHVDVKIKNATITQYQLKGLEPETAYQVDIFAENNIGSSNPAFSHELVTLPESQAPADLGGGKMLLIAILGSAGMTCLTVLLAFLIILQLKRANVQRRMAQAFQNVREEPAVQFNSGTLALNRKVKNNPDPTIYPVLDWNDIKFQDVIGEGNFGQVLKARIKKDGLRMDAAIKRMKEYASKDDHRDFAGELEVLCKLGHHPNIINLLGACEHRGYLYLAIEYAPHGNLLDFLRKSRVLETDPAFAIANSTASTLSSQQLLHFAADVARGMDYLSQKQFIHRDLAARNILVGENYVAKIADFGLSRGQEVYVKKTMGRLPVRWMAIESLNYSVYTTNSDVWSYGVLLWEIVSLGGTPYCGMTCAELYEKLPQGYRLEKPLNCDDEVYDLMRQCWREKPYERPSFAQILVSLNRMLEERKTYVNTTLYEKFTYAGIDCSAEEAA

panel of 442 kinases [3] = molecular target: T3, panel of 442 kinases (Homo sapiens, UniProt Q09013); details: DMPK; for remaining activity at 1 µM: read-out: % of control at 1 µM
T3 construct: purchased Ambit Biosciences (scanMAXX KINOMEscan)
T3 sequence (Q09013 1-629): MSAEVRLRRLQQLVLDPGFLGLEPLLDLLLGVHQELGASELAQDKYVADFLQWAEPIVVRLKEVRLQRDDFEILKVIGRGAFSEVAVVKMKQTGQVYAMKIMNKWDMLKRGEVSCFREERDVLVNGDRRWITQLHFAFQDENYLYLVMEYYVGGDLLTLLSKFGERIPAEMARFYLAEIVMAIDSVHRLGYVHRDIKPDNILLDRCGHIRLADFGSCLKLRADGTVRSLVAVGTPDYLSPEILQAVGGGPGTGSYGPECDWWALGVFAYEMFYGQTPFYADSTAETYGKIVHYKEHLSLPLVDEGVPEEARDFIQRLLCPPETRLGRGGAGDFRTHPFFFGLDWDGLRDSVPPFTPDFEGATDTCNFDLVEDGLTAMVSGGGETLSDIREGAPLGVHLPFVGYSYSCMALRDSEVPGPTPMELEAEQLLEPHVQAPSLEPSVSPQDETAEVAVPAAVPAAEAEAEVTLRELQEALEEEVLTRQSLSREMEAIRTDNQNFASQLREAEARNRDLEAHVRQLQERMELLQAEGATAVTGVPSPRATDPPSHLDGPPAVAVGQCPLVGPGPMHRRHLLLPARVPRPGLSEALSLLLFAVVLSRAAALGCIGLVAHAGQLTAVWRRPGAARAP

panel of 442 kinases [4] = molecular target: T4, panel of 442 kinases (Homo sapiens, UniProt Q92630); details: DYRK2; for remaining activity at 1 µM: read-out: % of control at 1 µM
T4 construct: purchased Ambit Biosciences (scanMAXX KINOMEscan)
T4 sequence (Q92630 1-601): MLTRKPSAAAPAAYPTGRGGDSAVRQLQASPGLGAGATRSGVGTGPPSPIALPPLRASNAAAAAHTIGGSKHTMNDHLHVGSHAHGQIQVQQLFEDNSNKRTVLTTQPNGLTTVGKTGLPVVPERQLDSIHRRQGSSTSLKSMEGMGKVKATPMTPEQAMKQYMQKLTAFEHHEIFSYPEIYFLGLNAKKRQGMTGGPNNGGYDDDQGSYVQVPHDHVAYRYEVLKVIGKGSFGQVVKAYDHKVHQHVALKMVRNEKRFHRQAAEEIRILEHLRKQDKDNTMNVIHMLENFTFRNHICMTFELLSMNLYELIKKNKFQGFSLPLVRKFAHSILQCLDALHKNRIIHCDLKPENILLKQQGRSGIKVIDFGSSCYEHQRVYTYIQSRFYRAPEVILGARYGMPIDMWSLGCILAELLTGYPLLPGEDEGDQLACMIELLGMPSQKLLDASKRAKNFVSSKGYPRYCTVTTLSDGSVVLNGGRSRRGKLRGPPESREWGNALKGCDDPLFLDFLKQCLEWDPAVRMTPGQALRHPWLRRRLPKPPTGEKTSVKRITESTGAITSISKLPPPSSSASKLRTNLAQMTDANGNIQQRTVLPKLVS

[5] = 10 µM, read-out: % of control at 10 µM

Nc1cc(C(F)(F)F)c(-c2cc(N3CCOCC3)nc(N3CCOCC3)n2)cn1 [Buparlisib]
remaining activity at 1 µM (panel of 442 kinases [1]): 100%
remaining activity at 10 µM (panel of 442 kinases [1]; [5]): 100%
remaining activity at 1 µM (panel of 442 kinases [2]): 100%
remaining activity at 10 µM (panel of 442 kinases [2]; 10 µM, read-out: TIE2 (% of control at 10 µM)): 100%
remaining activity at 1 µM (panel of 442 kinases [3]): 79%
remaining activity at 10 µM (panel of 442 kinases [3]; [5]): 83%
remaining activity at 1 µM (panel of 442 kinases [4]): 80%
remaining activity at 10 µM (panel of 442 kinases [4]; [5]): 100%

Cn1c(=O)n(-c2ccc(C(C)(C)C#N)cc2)c2c3cc(-c4cnc5ccccc5c4)ccc3ncc21 [Dactolisib, 2-methyl-2-[4-(3-methyl-2-oxo-8-quinolin-3-yl-2,3-dihydroimidazo[4,5-c]quinolin-1-yl)-phenyl] propionitrile]
remaining activity at 1 µM (panel of 442 kinases [1]): 60%
remaining activity at 1 µM (panel of 442 kinases [2]): 100%
remaining activity at 1 µM (panel of 442 kinases [3]): 88%
remaining activity at 1 µM (panel of 442 kinases [4]): 67%

COc1ncc(-c2ccc3nccc(-c4ccnnc4)c3c2)cc1NS(=O)(=O)c1ccc(F)cc1F [Omipalisib]
remaining activity at 1 µM (panel of 442 kinases [1]): 61%
remaining activity at 1 µM (panel of 442 kinases [2]): 100%
remaining activity at 1 µM (panel of 442 kinases [3]): 100%
remaining activity at 1 µM (panel of 442 kinases [4]): 88%

FC(F)c1nc2ccccc2n1-c1nc(N2CCOCC2)nc(N2CCOCC2)n1 [ZSTK474, 2-(difluoromethyl)-1-[4,6-di(4-morpholinyl)-1,3,5-triazin-2-yl]-1H-benzimidazole]
remaining activity at 1 µM (panel of 442 kinases [1]): 78%
remaining activity at 1 µM (panel of 442 kinases [2]): 100%
remaining activity at 1 µM (panel of 442 kinases [3]): 100%
remaining activity at 1 µM (panel of 442 kinases [4]): 78%
